According to patent publication US10167262B2, “Herbicidal substituted 3-arylpyrazoles” (FMC CORPORATION, priority 2014, dated 2019):

Columns and labels:
Assay type in all cases: in vivo
[1] = test system: barnyardgrass (Echinochloa crus-galli); experiment: Test B flooded paddy test, plant response rating 0-100; conditions: Flood, 250 g ai/ha; scale 0 to 100 (0 no effect, 100 complete control); 13 to 15 days
Text: (§1) At time of treatment, test pots were flooded to 3 cm above the soil surface, treated by application of test compounds directly to the paddy water, and then maintained at that water depth for the duration of the test. Treated plants and controls were maintained in a greenhouse for 13 to 15 days, after which time all species were compared to controls and visually evaluated. […] A dash (-) response means no test result.

[2] = test system: sedge, umbrella (small-flower umbrella sedge, Cyperus difformis); experiment: as above; conditions: Flood, 250 g ai/ha; scale 0 to 100 (0 no effect, 100 complete control); 13 to 15 days
Text: as §1

[3] = test system: ducksalad (Heteranthera limosa); experiment: as above; conditions: Flood, 250 g ai/ha; scale 0 to 100 (0 no effect, 100 complete control); 13 to 15 days
Text: as §1

rice (Oryza sativa) = experiment: as above; conditions: Flood, 250 g ai/ha; scale 0 to 100 (0 no effect, 100 complete control); 13 to 15 days
Text: as §1

[4] = test system: barnyardgrass (Echinochloa crus-galli); experiment: Test A pre-/postemergence greenhouse herbicide test, visual injury rating 0-100
How it was run: (§2)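 Planting in a loam and sand mixture preceded a directed preemergence soil spray; postemergence spray was applied concurrently to one- to two-leaf plants. After roughly 10 days under glass, injury is scored visually against untreated controls, 0–100.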

corn (Zea mays) = experiment: as above
How it was run: as §2

[5] = test system: morningglory (Ipomoea spp.); experiment: as above
How it was run: as §2

[6] = test system: pigweed (Amaranthus retroflexus); experiment: as above
How it was run: as §2

[7] = test system: giant foxtail (Setaria faberii); experiment: as above
How it was run: as §2

[8] = test system: wheat (Triticum aestivum); experiment: as above
How it was run: as §2

[9] = test system: velvetleaf (Abutilon theophrasti); experiment: as above
How it was run: as §2

[10] = test system: large (Lg) crabgrass (Digitaria sanguinalis); experiment: as above
How it was run: as §2

How did the “Plant response rating, Barnyardgrass” value [1] turn out when `CC(=O)Cn1cc(C(=O)c2ccccc2)c(-c2cc(Cl)cc(Cl)c2)n1` [Compound 45] was run?
The value was 0.

And the “Plant response rating, Sedge, Umbrella” value [2]?
The value was 0.

And the “Plant response rating, Ducksalad” value [3]?
The value was 0.

What about the “Plant response rating, Rice” value (rice (Oryza sativa)) of the same compound?
The value was 0.

What about the “Plant response rating (0 to 100 scale), Barnyardgrass” value ([4]; Postemergence, 125 g ai/ha) of the same compound?
Its value is 0.

And the “Plant response rating (0 to 100 scale), Barnyardgrass” value ([4]; Postemergence, 500 g ai/ha)?
The value was 0.

And the “Barnyardgrass plant response rating (0 = no effect, 100 = complete control)” value ([4]; Preemergence, 125 g ai/ha)?
The value was 0.

And the “Plant response rating (0 to 100 scale), Barnyardgrass” value ([4]; Preemergence, 500 g ai/ha)?
Its value is 0.

And the “Plant response rating (0 to 100 scale), Corn” value (corn (Zea mays); Postemergence, 125 g ai/ha)?
The value was 0.

And the “Plant response rating (0 to 100 scale), Corn” value (corn (Zea mays); Postemergence, 500 g ai/ha)?
The value was 0.

And the “Corn plant response rating (0 = no effect, 100 = complete control)” value (corn (Zea mays); Preemergence, 125 g ai/ha)?
Its value is 0.

What about the “Plant response rating (0 to 100 scale), Corn” value (corn (Zea mays); Preemergence, 500 g ai/ha) of the same compound?
The value was 0.

And the “Morningglory plant response rating (0 = no effect, 100 = complete control)” value ([5]; Preemergence, 125 g ai/ha)?
Its value is 0.

What about the “Plant response rating (0 to 100 scale), Morningglory” value ([5]; Preemergence, 500 g ai/ha) of the same compound?
The value was 0.

And the “Plant response rating (0 to 100 scale), Pigweed” value ([6]; Postemergence, 125 g ai/ha)?
The value was 40.

And the “Plant response rating (0 to 100 scale), Pigweed” value ([6]; Postemergence, 500 g ai/ha)?
The value was 60.

What about the “Pigweed plant response rating (0 = no effect, 100 = complete control)” value ([6]; Preemergence, 125 g ai/ha) of the same compound?
The value was 0.

What about the “Plant response rating (0 to 100 scale), Pigweed” value ([6]; Preemergence, 500 g ai/ha) of the same compound?
Its value is 70.

And the “Plant response rating (0 to 100 scale), Foxtail, Giant” value ([7]; Postemergence, 125 g ai/ha)?
Its value is 0.

What about the “Plant response rating (0 to 100 scale), Foxtail, Giant” value ([7]; Postemergence, 500 g ai/ha) of the same compound?
The value was 0.

What about the “Foxtail, Giant plant response rating (0 = no effect, 100 = complete control)” value ([7]; Preemergence, 125 g ai/ha) of the same compound?
Its value is 0.

What about the “Plant response rating (0 to 100 scale), Foxtail, Giant” value ([7]; Preemergence, 500 g ai/ha) of the same compound?
The value was 0.

What about the “Plant response rating (0 to 100 scale), Wheat” value ([8]; Postemergence, 125 g ai/ha) of the same compound?
The value was 0.

What about the “Plant response rating (0 to 100 scale), Wheat” value ([8]; Postemergence, 500 g ai/ha) of the same compound?
Its value is 0.

And the “Wheat plant response rating (0 = no effect, 100 = complete control)” value ([8]; Preemergence, 125 g ai/ha)?
The value was 0.

What about the “Plant response rating (0 to 100 scale), Wheat” value ([8]; Preemergence, 500 g ai/ha) of the same compound?
The value was 0.

And the “Plant response rating (0 to 100 scale), Velvetleaf” value ([9]; Postemergence, 125 g ai/ha)?
Its value is 60.

And the “Plant response rating (0 to 100 scale), Velvetleaf” value ([9]; Postemergence, 500 g ai/ha)?
Its value is 80.

What about the “Velvetleaf plant response rating (0 = no effect, 100 = complete control)” value ([9]; Preemergence, 125 g ai/ha) of the same compound?
The value was 20.

And the “Plant response rating (0 to 100 scale), Velvetleaf” value ([9]; Preemergence, 500 g ai/ha)?
The value was 30.

What about the “Plant response rating (0 to 100 scale), Crabgrass, Large” value ([10]; Postemergence, 125 g ai/ha) of the same compound?
The value was 0.

And the “Plant response rating (0 to 100 scale), Crabgrass, Large” value ([10]; Postemergence, 500 g ai/ha)?
The value was 0.

What about the “Crabgrass, Large plant response rating (0 = no effect, 100 = complete control)” value ([10]; Preemergence, 125 g ai/ha) of the same compound?
The value was 0.

What about the “Plant response rating (0 to 100 scale), Crabgrass, Large” value ([10]; Preemergence, 500 g ai/ha) of the same compound?
Its value is 0.

What does the source list for `Fc1cc(Cl)cc(-c2n[nH]cc2C(=NN2CCCC2)c2ccccc2)c1` [Compound 42]?
Plant response rating, Barnyardgrass [1]: 0; Plant response rating, Sedge, Umbrella [2]: 0; Plant response rating, Ducksalad [3]: 0; Plant response rating, Rice (rice (Oryza sativa)): 0; Plant response rating (0 to 100 scale), Barnyardgrass ([4]; Postemergence, 1000 g ai/ha): 0; Plant response rating (0 to 100 scale), Barnyardgrass ([4]; Preemergence, 1000 g ai/ha): 0; Plant response rating (0 to 100 scale), Corn (corn (Zea mays); Postemergence, 1000 g ai/ha): 0; Plant response rating (0 to 100 scale), Corn (corn (Zea mays); Preemergence, 1000 g ai/ha): 0; Plant response rating (0 to 100 scale), Morningglory ([5]; Postemergence, 1000 g ai/ha): 0; Plant response rating (0 to 100 scale), Morningglory ([5]; Preemergence, 1000 g ai/ha): 0; Plant response rating (0 to 100 scale), Pigweed ([6]; Postemergence, 1000 g ai/ha): 100; Plant response rating (0 to 100 scale), Pigweed ([6]; Preemergence, 1000 g ai/ha): 100; Plant response rating (0 to 100 scale), Foxtail, Giant ([7]; Postemergence, 1000 g ai/ha): 0; Plant response rating (0 to 100 scale), Foxtail, Giant ([7]; Preemergence, 1000 g ai/ha): 0; Plant response rating (0 to 100 scale), Wheat ([8]; Postemergence, 1000 g ai/ha): 0; Plant response rating (0 to 100 scale), Wheat ([8]; Preemergence, 1000 g ai/ha): 0; Plant response rating (0 to 100 scale), Velvetleaf ([9]; Postemergence, 1000 g ai/ha): 100; Plant response rating (0 to 100 scale), Velvetleaf ([9]; Preemergence, 1000 g ai/ha): 100; Plant response rating (0 to 100 scale), Crabgrass, Large ([10]; Postemergence, 1000 g ai/ha): 0; Plant response rating (0 to 100 scale), Crabgrass, Large ([10]; Preemergence, 1000 g ai/ha): 0

With `CCn1cc(C(=O)c2cccnc2)c(-c2cc(Cl)cc(Cl)c2)n1` [Compound 7] as the compound, how does the “Plant response rating, Barnyardgrass” value [1] read?
The value was 0.

What about the “Plant response rating, Sedge, Umbrella” value [2] of the same compound?
The value was 0.

And the “Plant response rating, Ducksalad” value [3]?
Its value is 0.

What about the “Plant response rating, Rice” value (rice (Oryza sativa)) of the same compound?
The value was 0.

And the “Plant response rating (0 to 100 scale), Barnyardgrass” value ([4]; Postemergence, 125 g ai/ha)?
Its value is 0.

What about the “Plant response rating (0 to 100 scale), Barnyardgrass” value ([4]; Postemergence, 500 g ai/ha) of the same compound?
The value was 0.

And the “Barnyardgrass plant response rating (0 = no effect, 100 = complete control)” value ([4]; Preemergence, 125 g ai/ha)?
Its value is 0.

What about the “Plant response rating (0 to 100 scale), Barnyardgrass” value ([4]; Preemergence, 500 g ai/ha) of the same compound?
Its value is 0.

And the “Plant response rating (0 to 100 scale), Corn” value (corn (Zea mays); Postemergence, 125 g ai/ha)?
The value was 0.

What about the “Plant response rating (0 to 100 scale), Corn” value (corn (Zea mays); Postemergence, 500 g ai/ha) of the same compound?
The value was 0.

What about the “Corn plant response rating (0 = no effect, 100 = complete control)” value (corn (Zea mays); Preemergence, 125 g ai/ha) of the same compound?
The value was 0.

And the “Plant response rating (0 to 100 scale), Corn” value (corn (Zea mays); Preemergence, 500 g ai/ha)?
Its value is 0.

And the “Plant response rating (0 to 100 scale), Morningglory” value ([5]; Postemergence, 125 g ai/ha)?
The value was 0.

What about the “Plant response rating (0 to 100 scale), Morningglory” value ([5]; Postemergence, 500 g ai/ha) of the same compound?
The value was 0.

And the “Morningglory plant response rating (0 = no effect, 100 = complete control)” value ([5]; Preemergence, 125 g ai/ha)?
Its value is 0.

What about the “Plant response rating (0 to 100 scale), Morningglory” value ([5]; Preemergence, 500 g ai/ha) of the same compound?
The value was 0.

What about the “Plant response rating (0 to 100 scale), Pigweed” value ([6]; Postemergence, 125 g ai/ha) of the same compound?
The value was 40.

And the “Plant response rating (0 to 100 scale), Pigweed” value ([6]; Postemergence, 500 g ai/ha)?
The value was 70.

And the “Pigweed plant response rating (0 = no effect, 100 = complete control)” value ([6]; Preemergence, 125 g ai/ha)?
The value was 20.

What about the “Plant response rating (0 to 100 scale), Pigweed” value ([6]; Preemergence, 500 g ai/ha) of the same compound?
The value was 60.

And the “Plant response rating (0 to 100 scale), Foxtail, Giant” value ([7]; Postemergence, 125 g ai/ha)?
The value was 0.

What about the “Plant response rating (0 to 100 scale), Foxtail, Giant” value ([7]; Postemergence, 500 g ai/ha) of the same compound?
Its value is 0.

And the “Foxtail, Giant plant response rating (0 = no effect, 100 = complete control)” value ([7]; Preemergence, 125 g ai/ha)?
The value was 0.

What about the “Plant response rating (0 to 100 scale), Foxtail, Giant” value ([7]; Preemergence, 500 g ai/ha) of the same compound?
The value was 0.

What about the “Plant response rating (0 to 100 scale), Wheat” value ([8]; Postemergence, 125 g ai/ha) of the same compound?
Its value is 0.

What about the “Plant response rating (0 to 100 scale), Wheat” value ([8]; Postemergence, 500 g ai/ha) of the same compound?
Its value is 0.

What about the “Wheat plant response rating (0 = no effect, 100 = complete control)” value ([8]; Preemergence, 125 g ai/ha) of the same compound?
The value was 0.

What about the “Plant response rating (0 to 100 scale), Wheat” value ([8]; Preemergence, 500 g ai/ha) of the same compound?
The value was 0.

What about the “Plant response rating (0 to 100 scale), Velvetleaf” value ([9]; Postemergence, 125 g ai/ha) of the same compound?
The value was 50.

What about the “Plant response rating (0 to 100 scale), Velvetleaf” value ([9]; Postemergence, 500 g ai/ha) of the same compound?
The value was 70.

And the “Velvetleaf plant response rating (0 = no effect, 100 = complete control)” value ([9]; Preemergence, 125 g ai/ha)?
Its value is 0.

What about the “Plant response rating (0 to 100 scale), Velvetleaf” value ([9]; Preemergence, 500 g ai/ha) of the same compound?
Its value is 50.

And the “Plant response rating (0 to 100 scale), Crabgrass, Large” value ([10]; Postemergence, 125 g ai/ha)?
The value was 0.

What about the “Plant response rating (0 to 100 scale), Crabgrass, Large” value ([10]; Postemergence, 500 g ai/ha) of the same compound?
Its value is 0.

And the “Crabgrass, Large plant response rating (0 = no effect, 100 = complete control)” value ([10]; Preemergence, 125 g ai/ha)?
Its value is 0.

What about the “Plant response rating (0 to 100 scale), Crabgrass, Large” value ([10]; Preemergence, 500 g ai/ha) of the same compound?
Its value is 0.
